Assay results: publication PMC12698445, “Phenolic profile of different solvent extracts of Reseda alba L. and evaluation of anti-quorum sensing, antioxidant, and enzyme inhibition activities” (Frontiers in Nutrition, 2025)

Target: T1, fungal tyrosinase
T1 construct: gene PPO3; only 'fungal' printed
Experiment: L-DOPA oxidation, […] nm
Assay type: biochemical
Details: L-DOPA substrate, pH 6.8, room temperature

Tyrosinase / IC50: 23.80 ± 0.25 µg/mL
SMILES: O=c1cc(CO)occ1O [Kojic acid]
